The values below come from patent US11434222B2, “MAGL inhibitors” (H. LUNDBECK A/S, priority 2020, dated 2022).

Like-named read-outs stand apart in the source and are kept apart here.

One series has as its target T1, MAGL (Mus musculus, UniProt O35678).
T1 construct: brain proteomes were prepared and analyzed according to previously established methods; from tissue; host or cells: brain of wild-type C57Bl/6J mice
T1 sequence (O35678 1-303): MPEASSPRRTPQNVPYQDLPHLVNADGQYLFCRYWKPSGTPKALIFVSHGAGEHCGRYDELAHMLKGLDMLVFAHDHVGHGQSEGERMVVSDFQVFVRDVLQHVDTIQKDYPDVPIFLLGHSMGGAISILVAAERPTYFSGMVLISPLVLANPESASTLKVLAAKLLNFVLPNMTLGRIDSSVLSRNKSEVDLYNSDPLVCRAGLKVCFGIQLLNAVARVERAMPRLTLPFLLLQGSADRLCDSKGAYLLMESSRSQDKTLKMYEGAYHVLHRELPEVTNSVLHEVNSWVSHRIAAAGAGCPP
Put plainly: In vivo MAGL inhibition in mouse brain proteomes after oral gavage. The following applies: 5 mg/kg oral gavage, 4 h after administration, read-out: MAGL % inh. 5 mg/kg (mouse). On the procedure: Inhibitors were administered to wild-type C57B1/6J by oral gavage in a vehicle of polyethylene glycol. Each animal was sacrificed 4 h following administration and brain proteomes were prepared and analyzed according to previously established methods (See Niphakis, M. J., et al. (2011) ACS Chem. Neurosci. and Long, J. Z., et al. Nat. Chem. Biol. 5:37-44).

Series [1] deals with rat formalin paw model of inflammatory pain. Description: Rat formalin paw model of inflammatory pain. The series is classed as in vivo. On the procedure: In the rat formalin paw model formalin is administered into the right […] of a rat in order to induce pain (observed by hind limb licking duration and frequency).
Male Sprague Dawley rats were divided into three cohorts to enable testing in the Laboras™ equipment to be carried out over three days in a balanced design to give treatment groups of 10. On the day of the study, male Sprague Dawley rats were weighed, tail marked and dosed orally with vehicle, test compound (0.1, 0.3, 0.6, 1, 3 or 10 mg/kg) or pregabalin (30 mg/kg) 4 h pre-test using a 5 mL/kg dosing volume. For Example 6 the vehicle used was 0.5% methylcellulose in water and for Example 8 the vehicle used was 20% HP-b-CD. Up to six animals were dosed at a time. After 4 h, rats received an intraplantar injection of 50 μL of a 2.5% v/v formalin solution into the right hind paw. Rats were immediately placed into the Laboras™ cages and data acquisition started. The primary measures recorded by Laboras™ for the formalin paw model are hind limb licking duration and frequency. Locomotion is also reported as maximum speed, average speed when moving or over the whole-time bin and distance travelled. After 40 min, when data acquisition was complete, rats were removed from the cages.
On removal from the test cages, rats were anaesthetised with the gaseous anaesthetic isoflu-rane (5% v/v isoflurane in oxygen) and blood samples were collected by cardiac puncture. Brains were then removed, rinsed in phosphate buffered saline (PBS), hemi-sected and frozen separately in liquid nitrogen.
Data were analysed with Statistica software (TIBCO, USA version 11.1). All data are expressed as means±standard error of the mean (sem) to one decimal place. […] Time course data were analysed by repeated measures analysis of variance (ANOVA) followed by one-way ANOVAs at each time point and subsequent Dunnett's post hoc tests. […]

Series [2] can be described thus: In vitro rat blood to plasma ratio. The series is classed as in vitro ADME. The settings on record: 1 μM test compound. On the procedure:
Brain disposition was evaluated in male Sprague-Dawley rats (n=3, standard body weight). Briefly, test compound was formulated as a simple suspension, in 0.5% HPMC in water, then administered by oral gavage (5 mg/kg, 5 mL/kg). Four hours post dosing, rats were sacrificed, and terminal blood and brain samples were taken. Blood was obtained via cardiac puncture (0.1 mL) and was added into 0.4 mL CH3CN for precipitation immediately. The samples were stored at −75+/−15° C. prior to analysis. Brain tissue samples were collected after animals were fully exsanguinated, and the tissues were washed with cold saline quickly. After sectioning, brain sections were immediately frozen in liquid nitrogen and stored at −75+/−15° C. prior to analysis. Blood and brain samples were analyzed by LC/MS/MS using an optimized analytical method. Concentrations of test compound in blood and brain were quantified against matrix matched calibration standards. The total blood, plasma, and brain concentration data are presented in Table 2 alongside the calculated brain Kp (total brain concentration:total plasma concentration ratio), the calculated brain kp,uu (unbound brain concentration:unbound plasma concentration ratio), the free fractions in rat plasma and brain, and the in vitro rat blood to plasma distribution profile. The total plasma concentration data were calculated from the total blood concentration data using rat blood to plasma ratio which was measured in vitro (1 μM test compound). For kp,uu determination, the free fraction in rat plasma and brain homogenate were measured in vitro by standard equilibrium dialysis (1 μM test compound and 6 h equilibration against buffer pH 7.4; for rat plasma analysis, 100 mM stock solution of diisopropyl fluorophosphate was added to the pre-warmed rat plasma prior to adding test article).

Series [3] can be described thus: Kinetic solubility in PBS. The class given is physicochemical. The following applies: aqueous buffer, kinetic from dmso stock. The essentials:
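Solubility measured in PBS at pH 2.0 and pH 7.4, in duplicate, starting from 10 mM DMSO stock; shaken 2 h at RT at 1,100 RPM. Filtrate diluted and quantified by LC-MS/MS (positive MRM) against a DMSO standard of known concentration.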

Setting [4] is: PBS pH 2.0, RT, read-out: pH 2 Solubility (kinetic).
The mark [5] stands for this setting: PBS pH 7.4, RT, read-out: pH 7.4 Solubility (kinetic).

With `O=C(Nc1cccnn1)[C@H]1CC12CCN(C(=O)OC(C(F)(F)F)C(F)(F)F)CC2` [Example 6, 1,1,1,3,3,3-hexafluoropropan-2-yl (S)-1-(pyridazin-3-ylcarbamoyl)-6-azaspiro[2.5]octane-6-carboxylate], the inhibition at 5 mg/kg at MAGL turned out to be 100%. For the same compound, in series [1] (0.6 mg/kg, 3 mg/kg and 10 mg/kg p.o. 4 h pre-test, early and/or late phases, FIG. 1), the “measure of spontaneous pain (hind limb licking frequency)” value is on record as “statistically significant reduction”. Moreover, the blood plasma ratio at 1 μM in series [2] was 0.72. In addition, the kinetic solubility at 2 h in series [3] (setting [4]) worked out at 240 µM; in series [3] (setting [5]), 106 µM.
On to `O=C(NC1CCOCC1)[C@H]1CC12CCN(C(=O)OC(C(F)(F)F)C(F)(F)F)CC2` [Example 8, 1,1,1,3,3,3-hexafluoropropan-2-yl (S)-1-[(oxan-4-yl)carbamoyl]-6-azaspiro[2.5]octane-6-carboxylate], for which the inhibition at 5 mg/kg at MAGL turned out to be 100%. For the same compound, the “measure of spontaneous pain (hind limb licking frequency)” value in series [1] (0.3 mg/kg and 0.6 mg/kg p.o. 4 h pre-test, late phase, FIG. 2) was “statistically significant reduction”; in series [1] (1 mg/kg, 3 mg/kg and 10 mg/kg p.o. 4 h pre-test, both early and late phases, FIG. 2), “statistically significant reduction”. Further, the blood plasma ratio at 1 μM in series [2] was determined as 0.96. Also, the values for the kinetic solubility at 2 h in series [3] (setting [4]) and in series [3] (setting [5]) were 308 µM and 256 µM, respectively.
